Experimental data: patent US20200347043A1, “MODULATORS OF THE INTEGRATED STRESS PATHWAY” (Calico Life Sciences LLC, priority 2019, published 2020)

system: HEK293T cells carrying the ATF4 luciferase reporter; assay: ATF4-Luc assay (in vitro model of VWMD); type: cell-based, human; conditions: Homo sapiens, HEK-293T, 1 μg/mL tunicamycin, 7 hours, One Glo luminescence
Procedure, shortened: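 Tunicamycin (1 μg/mL) stress with co-added compound for 7 hours in HEK293T cells stably carrying an ATF4 5′-UTR–luciferase reporter. EC50 values come from the luminescent signal (One Glo).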

| Compound | EC50 |
| --- | --- |
| O=C(NC12CC(c3cc([C@H]4C[C@@H](OC(F)(F)F)C4)no3)(C1)C2)[C@@H]1C[C@@H](O)c2cc(Cl)ccc2O1 [Compound 268, (2S,4R)-6-chloro-4-hydroxy-N-(3-{3-[cis-3-(trifluoromethoxy)cyclobutyl]-1,2-oxazol-5-yl}bicyclo[1.1.1]pentan-1-yl)-3,4-dihydro-2H-1-benzopyran-2-carboxamide] | 50 to 250 nM |
| O=C(NC12CC(N3CC([C@H]4C[C@@H](OC(F)(F)F)C4)OC3=O)(C1)C2)[C@@H]1C[C@@H](O)c2cc(Cl)ccc2O1 (stereo partly drawn) [Compound 269, (2S,4R)-6-chloro-4-hydroxy-N-(3-{2-oxo-5-[cis-3-(trifluoromethoxy)cyclobutyl]-1,3-oxazolidin-3-yl}bicyclo[1.1.1]pentan-1-yl)-3,4-dihydro-2H-1-benzopyran-2-carboxamide] | 250 to 500 nM |
| O=C(NC12CC(c3ncc(-c4ccc(Cl)c(F)c4)o3)(C1)C2)[C@H]1C[C@@H](O)c2cc(Cl)ccc2O1 [Compound 270, (2R,4R)-6-chloro-N-{3-[5-(4-chloro-3-fluorophenyl)-1,3-oxazol-2-yl]bicyclo[1.1.1]pentan-1-yl}-4-hydroxy-3,4-dihydro-2H-1-benzopyran-2-carboxamide] | < 10 nM |
| O=C(NC12CC(c3ncc(-c4ccc(Cl)c(F)c4)o3)(C1)C2)[C@@H]1C[C@@H](O)c2cc(Cl)ccc2O1 [Compound 271, (2S,4R)-6-chloro-N-{3-[5-(4-chloro-3-fluorophenyl)-1,3-oxazol-2-yl]bicyclo[1.1.1]pentan-1-yl}-4-hydroxy-3,4-dihydro-2H-1-benzopyran-2-carboxamide] | 10 to 50 nM |
| O=C(NC12CC(c3csc(-c4ccc(Cl)cc4)n3)(C1)C2)[C@H]1C[C@@H](O)c2cc(Cl)ccc2O1 [Compound 272, (2R,4R)-6-chloro-N-{3-[2-(4-chlorophenyl)-1,3-thiazol-4-yl]bicyclo[1.1.1]pentan-1-yl}-4-hydroxy-3,4-dihydro-2H-1-benzopyran-2-carboxamide] | 10 to 50 nM |
| O=C(NC12CC(c3csc(-c4ccc(Cl)cc4)n3)(C1)C2)[C@@H]1C[C@@H](O)c2cc(Cl)ccc2O1 [Compound 273, (2S,4R)-6-chloro-N-{3-[2-(4-chlorophenyl)-1,3-thiazol-4-yl]bicyclo[11.11]pentan-1-yl}-4-hydroxy-3,4-dihydro-2H-1-benzopyran-2-carboxamide] | 50 to 250 nM |
| Cc1nc(C23CC(NC(=O)[C@H]4C[C@@H](O)c5cc(Cl)ccc5O4)(C2)C3)oc1-c1ccc(Cl)cc1 [Compound 274, (2R,4R)-6-chloro-N-{3-[5-(4-chlorophenyl)-4-methyl-1,3-oxazol-2-yl]bicyclo[1.1.1]pentan-1-yl}-4-hydroxy-3,4-dihydro-2H-1-benzopyran-2-carboxamide] | 10 to 50 nM |
| Cc1nc(C23CC(NC(=O)[C@@H]4C[C@@H](O)c5cc(Cl)ccc5O4)(C2)C3)oc1-c1ccc(Cl)cc1 [Compound 275, (2S,4R)-6-chloro-N-{3-[5-(4-chlorophenyl)-4-methyl-1,3-oxazol-2-yl]bicyclo[1.1.1]pentan-1-yl}-4-hydroxy-3,4-dihydro-2H-1-benzopyran-2-carboxamide] | 50 to 250 nM |
| O=C(CO[C@H]1C[C@@H](OC(F)(F)F)C1)NC12CCC(NC(=O)[C@@H]3C[C@H](O)c4cc(Cl)ccc4O3)(CC1)C[C@@H]2O [Compound 276, (2S,4S)-6-chloro-4-hydroxy-N-[(3S)-3-hydroxy-4-(2-{[cis-3-(trifluoromethoxy)cyclobutyl]oxy}acetamido)bicyclo[2.2.2]octan-1-yl]-3,4-dihydro-2H-1-benzopyran-2-carboxamide] | < 10 nM |
| O=C(NC12CC(N3CC(c4ccc(Cl)cc4)OC3=O)(C1)C2)[C@H]1C[C@@H](O)c2cc(Cl)ccc2O1 (stereo partly drawn) [Compound 277, (2R,4R)-6-chloro-N-{3-[5-(4-chlorophenyl)-2-oxo-1,3-oxazolidin-3-yl]bicyclo[1.1.1]pentan-1-yl}-4-hydroxy-3,4-dihydro-2H-1-benzopyran-2-carboxamide] | 50 to 250 nM |
| O=C(NC12CC(N3CC(c4ccc(Cl)cc4)OC3=O)(C1)C2)[C@@H]1C[C@@H](O)c2cc(Cl)ccc2O1 (stereo partly drawn) [Compound 278, (2S,4R)-6-chloro-N-{3-[5-(4-chlorophenyl)-2-oxo-1,3-oxazolidin-3-yl]bicyclo[1.1.1]pentan-1-yl}-4-hydroxy-3,4-dihydro-2H-1-benzopyran-2-carboxamide] | 500 to 2000 nM |
| O=C(NC12CC(c3csc([C@H]4C[C@@H](OC(F)(F)F)C4)n3)(C1)C2)[C@H]1C[C@@H](O)c2cc(Cl)ccc2O1 [Compound 280, (2R,4R)-6-chloro-4-hydroxy-N-(3-{2-[cis-3-(trifluoromethoxy)cyclobutyl]-1,3-thiazol-4-yl}bicyclo[1.1.1]pentan-1-yl)-3,4-dihydro-2H-1-benzopyran-2-carboxamide] | 50 to 250 nM |
| O=C(NC12CC(n3cnc(-c4ccc(Cl)cc4)c3)(C1)C2)[C@H]1C[C@@H](O)c2cc(Cl)ccc2O1 [Compound 281, (2R,4R)-6-chloro-N-{3-[4-(4-chlorophenyl)-1H-imidazol-1-yl]bicyclo[1.1.1]pentan-1-yl}-4-hydroxy-3,4-dihydro-2H-1-benzopyran-2-carboxamide] | < 10 nM |
| O=C(NC12CC(n3cnc(-c4ccc(Cl)c(F)c4)c3)(C1)C2)[C@H]1C[C@@H](O)c2cc(Cl)ccc2O1 [Compound 282, (2R,4R)-6-chloro-N-{3-[4-(4-chloro-3-fluorophenyl)-1H-imidazol-1-yl]bicyclo[1.1.1]pentan-1-yl}-4-hydroxy-3,4-dihydro-2H-1-benzopyran-2-carboxamide] | < 10 nM |
| O=C(NC12CC(c3cc([C@H]4C[C@@H](OC(F)(F)F)C4)on3)(C1)C2)[C@@H]1C[C@@H](O)c2cc(Cl)ccc2O1 [Compound 283, (2S,4R)-6-chloro-4-hydroxy-N-(3-{5-[cis-3-(trifluoromethoxy)cyclobutyl]-1,2-oxazol-3-yl}bicyclo[1.1.1]pentan-1-yl)-3,4-dihydro-2H-1-benzopyran-2-carboxamide] | 50 to 250 nM |
| O=C(NC12CC(c3cc([C@H]4C[C@H](OC(F)(F)F)C4)no3)(C1)C2)[C@H]1C[C@@H](O)c2cc(Cl)ccc2O1 [Compound 284, (2R,4R)-6-chloro-4-hydroxy-N-(3-{3-[trans-3-(trifluoromethoxy)cyclobutyl]-1,2-oxazol-5-yl}bicyclo[1.1.1]pentan-1-yl)-3,4-dihydro-2H-1-benzopyran-2-carboxamide] | 50 to 250 nM |
| O=C(NC12CC(NC(=O)[C@H]3C[C@@H](O)c4cc(Cl)ccc4O3)(C1)C2)c1cnc(-c2ccccc2)o1 [Compound 285, N-(3-{[(2R,4R)-6-chloro-4-hydroxy-3,4-dihydro-2H-1-benzopyran-2-carbonyl]amino}bicyclo[11.1]pentan-1-yl)-2-phenyl-1,3-oxazole-5-carboxamide] | < 10 nM |
| N#C[C@H]1C[C@@H](Oc2nc(C34CC(NC(=O)[C@H]5C[C@@H](O)c6cc(Cl)ccc6O5)(C3)C4)cs2)C1 [Compound 286, (2R,4R)-6-chloro-N-[3-(2-{[cis-3-cyanocyclobutyl]oxy}-1,3-thiazol-4-yl)bicyclo[1.1.1]pentan-1-yl]-4-hydroxy-3,4-dihydro-2H-1-benzopyran-2-carboxamide] | 500 to 2000 nM |
| O=C(NC12CC(n3cnc([C@H]4C[C@@H](OC(F)(F)F)C4)c3)(C1)C2)[C@H]1C[C@@H](O)c2cc(Cl)ccc2O1 [Compound 287, (2R,4R)-6-chloro-4-hydroxy-N-(3-{4-[cis-3-(trifluoromethoxy)cyclobutyl]-1H-imidazol-1-yl}bicyclo[1.1.1]pentan-1-yl)-3,4-dihydro-2H-1-benzopyran-2-carboxamide] | < 10 nM |
| O=C(NC12CC(c3ncc([C@H]4C[C@@H](OC(F)(F)F)C4)o3)(C1)C2)[C@H]1C[C@@H](O)c2cc(Cl)ccc2O1 [Compound 288, (2R,4R)-6-chloro-4-hydroxy-N-(3-{5-[cis-3-(trifluoromethoxy)cyclobutyl]-1,3-oxazol-2-yl}bicyclo[1.1.1]pentan-1-yl)-3,4-dihydro-2H-1-benzopyran-2-carboxamide] | 10 to 50 nM |
| O=C(NC12CC(c3ncc([C@H]4C[C@@H](OC(F)(F)F)C4)[nH]3)(C1)C2)[C@H]1C[C@@H](O)c2cc(Cl)ccc2O1 [Compound 289, (2R,4R)-6-chloro-4-hydroxy-N-(3-{5-[cis-3-(trifluoromethoxy)cyclobutyl]-1H-imidazol-2-yl}bicyclo[1.1.1]pentan-1-yl)-3,4-dihydro-2H-1-benzopyran-2-carboxamide] | 10 to 50 nM |
| O=C(NC12CC(n3cc(C4CCC4)cn3)(C1)C2)[C@H]1C[C@@H](O)c2cc(Cl)ccc2O1 [Compound 290, (2R,4R)-6-chloro-N-[3-(4-cyclobutyl-1H-pyrazol-1-yl)bicyclo[1.1.1]pentan-1-yl]-4-hydroxy-3,4-dihydro-2H-1-benzopyran-2-carboxamide] | 50 to 250 nM |
| O=C(NC12CC(n3cc(C4CCC4)cn3)(C1)C2)[C@@H]1C[C@@H](O)c2cc(Cl)ccc2O1 [Compound 291, (2S,4R)-6-chloro-N-[3-(4-cyclobutyl-1H-pyrazol-1-yl)bicyclo[1.1.1]pentan-1-yl]-4-hydroxy-3,4-dihydro-2H-1-benzopyran-2-carboxamide] | 500 to 2000 nM |
| O=C(N[C@@H]1CC[C@@H](c2ncc([C@H]3C[C@@H](OC(F)(F)F)C3)o2)OC1)[C@H]1C[C@@H](O)c2cc(Cl)ccc2O1 [Compound 292, (2R,4R)-6-chloro-4-hydroxy-N-[(3R,6S)-6-{5-[3-(trifluoromethoxy)cyclobutyl]-1,3-oxazol-2-yl}oxan-3-yl]-3,4-dihydro-2H-1-benzopyran-2-carboxamide] | < 10 nM |
| O=C(NC12CC(c3cn([C@H]4C[C@@H](OC(F)(F)F)C4)cn3)(C1)C2)[C@H]1C[C@@H](O)c2cc(Cl)ccc2O1 [Compound 294, (2R,4R)-6-chloro-4-hydroxy-N-(3-{1-[cis-3-(trifluoromethoxy)cyclobutyl]-1H-imidazol-4-yl}bicyclo[1.1.1]pentan-1-yl)-3,4-dihydro-2H-1-benzopyran-2-carboxamide] | 10 to 50 nM |
